Reference: patent US20220378042A1, “Herbicide combinations comprising glufosinate and oxyfluorfen” (BASF SE, priority 2020, published 2022)
Like-named read-outs stand apart in the source and are kept apart here.

Experiments:
[1] = system: Chenopodium album; assay: greenhouse post-emergence herbicidal activity on Chenopodium album; type: in vivo; conditions: for inhibition at 327 g/ha: read-out: Solo Glufosinate % activity; for inhibition at 10.2 g/ha: 10.2 g ai/ha, scale 0-100% damage vs untreated, read-out: Solo Oxyfluorfen % activity
Text: (§1) For the post-emergence treatment, the test plants were first grown to 3 to 4 inch (7.6 to 10.2 cm) tall, and only then treated. Here, the herbicidal compositions were suspended or emulsified in water as distribution medium and sprayed using finely distributing nozzles.
(§2) The herbicide compounds applied in the examples were used as commercially available formulations which have been diluted with deionized water to a suitable concentration.
(§3) Oxyfluorfen (commercial product name: Goal 2XL) was used as an emulsifiable concentrate having an active ingredient concentration of 240 g/l. Glufosinate (commercial product name: Liberty) was used as an aqueous soluble liquid of glufosinate ammonium having an active ingredient concentration of 280 g/l. Adjuvants of ammonium sulfate (AMS) and non-ionic surfactant (NIS) were added in all treatments. AMS and NIS were AMS Liquid and Induce at rates of 1680 g/ha and 0.25% (v/v), respectively.
(§4) The test period extended over 28 days after treatment (DAT). During this time, the plants were tended and their response to the individual treatments was evaluated.
(§5) The evaluation for the damage caused by the chemical compositions was carried out using a scale from 0 to 100%, compared to the untreated control plants. Here, 0 means no damage and 100 means complete destruction of the plants.
(§6) The plants used in the greenhouse experiments belonged to the following species:
(§7) E=X+Y−(X·Y/100) • where X=effect in percent using Oxyfluorfen at an application rate a; • Y=effect in percent using glufosinate at application rate b; • E=expected effect (in %) of Oxyfluorfen plus glufosinate at application rates a+b.
(§8) The value E corresponds to the effect (plant damage or injury) which is to be expected if the activity of the individual compounds is just additive. If the observed effect is higher than the value E calculated according to Colby, a synergistic effect is present.

[2] = system: Echinochloa crus-galli; assay: greenhouse post-emergence herbicidal activity on Echinochloa crus-galli; type: in vivo; conditions: for inhibition at 327 g/ha: read-out: Solo Glufosinate % activity; for inhibition at 10.2 g/ha: 10.2 g ai/ha, scale 0-100% damage vs untreated, read-out: Solo Oxyfluorfen % activity
Text: as §1, §2, §3, §4, §5, §6, §7, §8

Compound	inhibition at 327 g/ha ([1]; 168 h) [%]	inhibition at 327 g/ha ([1]; 336 h) [%]	inhibition at 327 g/ha ([1]; 504 h) [%]	inhibition at 327 g/ha ([2]; 168 h) [%]	inhibition at 327 g/ha ([2]; 336 h) [%]	inhibition at 327 g/ha ([2]; 504 h) [%]	inhibition at 10.2 g/ha ([1]; 168 h, 7 DAT) [%]	inhibition at 10.2 g/ha ([1]; 336 h, 14 DAT) [%]	inhibition at 10.2 g/ha ([1]; 504 h, 21 DAT) [%]	inhibition at 10.2 g/ha ([2]; 168 h, 7 DAT) [%]	inhibition at 10.2 g/ha ([2]; 336 h, 14 DAT) [%]	inhibition at 10.2 g/ha ([2]; 504 h, 21 DAT) [%]
CP(=O)(O)CCC(N)C(=O)O (racemic) [Glufosinate, (2RS)-2-amino-4-[hydroxy(methyl)phosphinoyl]butyric acid]	81	75	78	84	25	20						
CCOc1cc(Oc2ccc(C(F)(F)F)cc2Cl)ccc1[N+](=O)[O-] [Oxyfluorfen]							33	25	30	28	15	20
